Test results as given in US20080159980A1, “Combination cancer therapy with a GST-activated anticancer compound and another anticancer therapy” (Telik, Inc., priority 2002, published 2008).
Read-outs that look alike come from different tables or passages of the source.

What was measured:
[1] = target: T1, GST M1a-1a (Homo sapiens, UniProt P09488); settings: cited from earlier work
T1 sequence (P09488 1-218): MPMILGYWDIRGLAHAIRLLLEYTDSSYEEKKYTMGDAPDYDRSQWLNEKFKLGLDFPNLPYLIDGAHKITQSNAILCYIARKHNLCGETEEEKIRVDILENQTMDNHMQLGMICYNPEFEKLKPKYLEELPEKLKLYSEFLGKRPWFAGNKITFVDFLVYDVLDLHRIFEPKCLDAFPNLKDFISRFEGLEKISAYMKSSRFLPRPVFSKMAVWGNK

[2] = system: human ovarian cancer cell line OVCAR-3
Procedure: The results were analyzed according to the Combination Index method with the “CalcuSyn” program from Biosoft.

[3] = target: GST P1-1 (Homo sapiens, UniProt P09211); settings: releases cytotoxic phosphorodiamidate mustard moiety; cited from earlier work
[4] = system: murine xenografts of M7609 engineered to have high, medium, and low levels of GST P1-1; settings: Morgan et al. 1998; cited from earlier work
[5] = system: human breast cancer cell line MCF-7; assay: MCF-7 cell proliferation, BrdU chemiluminescence assay (Example 4); format: cell-based
Procedure: (§1) Assay methods. All assays were conducted in triplicate wells, with solvent control. The extent of cell growth was expressed as a percentage of the signal from the solvent control wells. The means were computed and graphed, with the standard deviations shown as error bars.
MCF-7 was seeded at 4×10^4 cells/mL, 150 μL/well, and allowed to attach to the wells for 4-5 hours. The diluted compounds or solvent controls were then added at 50 μL/well. Incubation with TLK286 alone and in combination with docetaxel was continued for one doubling, and cell proliferation was determined using the BrdU (chemiluminescence) assay, by labeling with BrdU (Roche Diagnostics Corporation, Indianapolis, Ind., U.S.A.) overnight. The assay is based on the incorporation of BrdU, an analogue of thymidine, during DNA synthesis. The incorporation of BrdU, which reflects the extent of cell proliferation, was then quantitated with an ELISA kit (also from Roche Diagnostics Corporation). The results were analyzed according to the Combination Index method.

[6] = system: human lung cancer cell line A-549; assay: cells; format: cell-based; settings: A549, read-out: IC50 (concentration of TLK286 used in FIG. 5)
[7] = system: ovarian, breast, non-small cell lung, and colorectal cancers
[8] = system: in vitro cell culture and tumor biopsies; settings: Rosario et al. 2000; cited from earlier work
[9] = system: human non-Hodgkin's B cell lymphoma cell line RL; assay: RL cell growth, method similar to Example 2 (Example 8); format: cell-based; settings: RL cells
[10] = target: T2, GST A1-1 (Homo sapiens, UniProt P08263); settings: cited from earlier work
T2 sequence (P08263 2-222 limits assumed): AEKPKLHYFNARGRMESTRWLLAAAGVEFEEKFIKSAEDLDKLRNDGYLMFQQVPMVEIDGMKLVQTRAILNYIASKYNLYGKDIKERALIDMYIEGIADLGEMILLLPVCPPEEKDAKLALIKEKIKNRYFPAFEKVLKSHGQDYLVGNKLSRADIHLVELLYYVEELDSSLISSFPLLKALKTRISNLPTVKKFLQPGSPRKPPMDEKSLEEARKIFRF

[11] = system: MCF-7 human breast carcinoma cell line selected for resistance to cyclophosphamide; settings: cyclophosphamide-resistant line overexpressing GST P1-1; Morgan et al. 1998; cited from earlier work
[12] = system: human ovarian cancer cell line OVCAR-3; assay: OVCAR-3 cell viability, Wst-1 assay (Example 1); format: cell-based; settings: OVCAR-3, Wst-1, approximately three cell doublings
Procedure: as §1
The diluted compounds or solvent controls were then added at 50 μL/well. […] The results were further analyzed using the Combination Index (CI) method with the “CalcuSyn” program from Biosoft.

[13] = system: M6709 human colon carcinoma cell line selected for resistance to doxorubicin; settings: doxorubicin-resistant line overexpressing GST P1-1; Morgan et al. 1998; cited from earlier work
[14] = system: human colon cancer cell line DLD-1; assay: cells; format: cell-based; settings: DLD-1, read-out: IC20 (concentration of TLK286 used in FIG. 2)
Procedure: as §1
The human colon cancer cell line DLD-1 was seeded at 4×10^4 cells/mL, 150 μL/well, and allowed to attach to the wells overnight. The diluted compounds or solvent controls were then added at 50 μL/well. Incubation with TLK286 alone and in combination with oxaliplatin was continued for approximately four cell doublings, and cell viability was determined using the CellTiter-Glo assay (Promega Corporation, Madison, Wis., U.S.A.), used in accordance with the assay kit directions. […] The results were further analyzed using the Combination Index (CI) method with the “CalcuSyn” program from Biosoft.

[15] = system: human breast cancer cell line MX-1; assay: MX-1 cell growth, method similar to Example 2 (Example 9); format: cell-based; settings: MX-1 cells

GST P1-1, sequence (P09211 2-210 limits assumed): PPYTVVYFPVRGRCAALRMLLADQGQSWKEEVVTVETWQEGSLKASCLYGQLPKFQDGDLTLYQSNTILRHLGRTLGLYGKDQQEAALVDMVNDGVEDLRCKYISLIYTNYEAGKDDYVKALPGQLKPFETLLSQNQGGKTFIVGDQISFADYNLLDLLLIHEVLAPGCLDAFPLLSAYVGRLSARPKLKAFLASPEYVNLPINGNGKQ

## N[C@@H](CCC(=O)N[C@@H](CS(=O)(=O)CCOP(=O)(N(CCCl)CCCl)N(CCCl)CCCl)C(=O)NCC(=O)O)C(=O)O [TLK231, L-γ-glutamyl-3-[[2-[[bis[bis(2-chloroethyl)amino]phosphinyl]oxy]ethyl]sulfonyl]-L-alanyl-glycine]
[1]
  activation by GST isoenzyme: activated

## N[C@@H](CCC(=O)N[C@@H](CS(=O)(=O)CCOP(=O)(N(CCCl)CCCl)N(CCCl)CCCl)C(=O)N[C@@H](C(=O)O)c1ccccc1)C(=O)O [TLK286, L-γ-glutamyl-3-[[2-[[bis[bis (2-chloroethyl)amino]phosphinyl]oxy]ethyl]sulfonyl]-L-alanyl-2-phenyl-(2R)-glycine]
[2]
  IC10 (concentration of TLK286 used in FIG. 3): ~1.7 µM
[3]
  activation by GST isoenzyme: activated
[4]
  potency in xenografts versus GST P1-1 level: positively correlated with the level of GST P1-1
[5]; MCF-7, BrdU incorporation, one doubling
  IC40 (concentration of TLK286 used in FIG. 4): ~3.3 µM
[6]
  IC50: ~4 µM
[7]; colorectal and breast cancer
  single agent clinical activity: single agent antitumor activity
[7]; patients with non-small cell lung cancer and ovarian cancer
  single agent clinical activity: significant single agent antitumor activity and improvement in survival
[8]
  cross-resistance to platinum, paclitaxel, doxorubicin and gemcitabine: non-cross-resistant
[9]
  IC25 (concentration of TLK286 used in FIG. 8): ~4.6 µM
[10]
  activation by GST isoenzyme: activated
[11]
  potency in resistant line over parental cell line: more potent
[12]
  IC30 (concentration of TLK286 used in FIG. 1): ~3.1 µM
[13]
  potency in resistant line over parental cell line: more potent
[14]
  IC20: ~9 µM

## N[C@@H](CCC(=O)N[C@@H](Cc1cccc(S(=O)(=O)CCOP(=O)(N(CCCl)CCCl)N(CCCl)CCCl)c1)C(=O)NCC(=O)O)C(=O)O [TLK296, L-γ-glutamyl-3-[[2-[[bis[bis(2-chloroethyl)amino]phosphinyl]oxy]ethyl]sulfonyl]-L-phenylalanyl-glycine]
[3]
  activation by GST isoenzyme: activated

## C[C@@](NC(=O)[C@H](CS(=O)(=O)CCOP(=O)(N(CCCl)CCCl)N(CCCl)CCCl)NC(=O)CC[C@H](N)C(=O)O)(C(=O)O)c1ccccc1 [TLK303, L-γ-glutamyl-3-[[2-[[bis[bis(2-choroethyl)-amino]phosphinyl]oxy]ethyl]sulfonyl]-L-alanyl-2-phenyl-(2S) -alanine]
[10]
  activation by GST isoenzyme: activated

## CC(=O)O[C@@]12CO[C@@H]1C[C@H](O)[C@@]1(C)C(=O)[C@H](O)C3=C(C)[C@@H](OC(=O)[C@H](O)[C@@H](NC(=O)OC(C)(C)C)c4ccccc4)C[C@@](O)([C@@H](OC(=O)c4ccccc4)[C@H]21)C3(C)C [docetaxel, reference compound]
[5]; MCF-7, BrdU, docetaxel about 0.8 to 3 nM, from nearly no effect
  inhibition of proliferation at top of concentration range: ~60%

## COc1cc2ncnc(Nc3ccc(F)c(Cl)c3)c2cc1OCCCN1CCOCC1 [gefitinib]
[15]
  IC30 (concentration of gefitinib used in FIG. 9): ~2.0 µM
